Source: US20140073637A1, “AMINO-SUBSTITUTED-ALKYLOXY-BENZO[E]PYRIDO[4,3-B]INDOLE DERIVATIVES AS NEW POTENT KINASE INHIBITORS” (INSTITUT CURIE, priority 2011, published 2014)
Read-outs that look alike come from different tables or passages of the source.

How the values were obtained:
[1] = molecular target: Chk2 (Homo sapiens, UniProt O96017); assay: Kinase profiling in vitro at 1 μM; format: biochemical
Experimental: (§1) The specificity of C14 was tested, in vitro, against 121 kinases representative of the kinome. Assays run in duplicate, at the concentration of 1 μM, were performed by MRC (Dundee, UK). Results are represented in FIG. 1. The main targets are highlighted in FIG. 1B.
(§2) In addition, the percentage of remaining activity of recombinant kinases Aurora kinases A and B and Checkpoint kinases 1 and 2 at the concentration of 1 μM of C1, C2 and C14 have been determined.
(§3) The profiling was performed at the MRC (Dundee University), in duplicate, on a set of 121 kinases. The panel is representative of the major different classes of kinases. Compounds were used at the concentration of 1 μM. In vitro, IC50 were determined on recombinant kinases by Reaction biology Corp (USA).

[2] = molecular target: T1, CHK1 (Homo sapiens, UniProt O14757); assay: Kinase profiling in vitro at 1 μM; format: biochemical
T1 sequence (O14757 1-476): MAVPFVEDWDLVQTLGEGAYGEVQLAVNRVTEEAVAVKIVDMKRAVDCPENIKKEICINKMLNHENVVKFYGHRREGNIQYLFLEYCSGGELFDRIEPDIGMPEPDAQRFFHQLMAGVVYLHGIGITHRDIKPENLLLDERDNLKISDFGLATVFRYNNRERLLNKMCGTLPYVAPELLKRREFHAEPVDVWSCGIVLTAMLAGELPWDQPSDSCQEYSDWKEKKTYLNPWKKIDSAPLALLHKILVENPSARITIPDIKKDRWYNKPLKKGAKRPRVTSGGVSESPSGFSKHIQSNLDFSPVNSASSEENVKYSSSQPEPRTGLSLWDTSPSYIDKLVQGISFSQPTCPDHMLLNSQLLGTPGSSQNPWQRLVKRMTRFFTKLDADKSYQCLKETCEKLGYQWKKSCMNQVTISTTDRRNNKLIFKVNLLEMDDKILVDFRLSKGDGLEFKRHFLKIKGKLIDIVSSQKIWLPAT
Experimental: as §1, §2, §3

[3] = molecular target: Aurora B (Homo sapiens, UniProt Q96GD4); assay: Kinase profiling in vitro at 1 μM; format: biochemical
Experimental: as §1, §2, §3

[4] = tested on: HeLa cells stably expressing aurora B-GFP; assay: Time-lapse of HeLa cells expressing aurora B-GFP; format: cell-based; conditions: 0.5 μM; continuous imaging
Experimental: FIG. 7A: Cells treated by either DMSO (CO: control) or C1 (0.5 μM) or C14 (0.5 μM) were continuously imaged with a ZEISS confocal microscope. […] Mitotic cells were found fluorescent and GFP was concentrated on the centromeres. In control conditions, centromere aligned at metaphase and upon anaphase ongoing fluorescence concentrates on the spindle and finally in the midbody (A, CO). The shape of the cells is visualized by white dotted lines.
HeLa cells expressing aurora B-GFP were treated by either C14 (0.5 μM) or C1 (0.5 μM) or DMSO (control; Co). Mitotic cells were continuously imaged under controlled conditions (37° C. and 5% CO2). The localisation of aurora B-GFP is represented and the elapsed time indicated in the three conditions (FIG. 7A). Control cells divided normally; Aurora B presented on the centromeres (FIG. 7A, CO, To and 10 min) was then transferred on microtubules (FIG. 7A, CO 45 min) and finally concentrated in the mid body (FIG. 7A, CO, 1 h). […] These cells escaped from mitosis without anaphase and gave rise to micronuclei (FIG. 7B, C1). In the presence of C14 (0.5 μM), chromosome aligned normally (FIG. 7B, C14 To) and aurora B-GFP was found accumulated in the mid-zone (FIG. 7B, C14, 18 min, 40 min and 2 h). Finally, these cells spread again without division (FIG. 7B, C14 4 h). […]

[5] = molecular target: MLK1 (Homo sapiens, UniProt P80192); assay: Kinase profiling in vitro at 1 μM; format: biochemical; conditions: 1 microMolar in vitro, read-out: Percent of remaining activity
Experimental: as §3, with “The specificity of C14 was tested, in vitro, against 121 kinases representative of the kinome. Assays run in duplicate, at the concentration of 1 μM, were performed by MRC (Dundee, UK). Results are represented in FIG. 1. The main targets are highlighted in FIG. 1B. The profiling” for “The profiling”

[6] = molecular target: Tak1 (Homo sapiens, UniProt O43318); assay: Kinase profiling in vitro at 1 μM; format: biochemical; conditions: 1 microMolar in vitro, read-out: Percent of remaining activity
Experimental: as §3, with “The specificity of C14 was tested, in vitro, against 121 kinases representative of the kinome. Assays run in duplicate, at the concentration of 1 μM, were performed by MRC (Dundee, UK). Results are represented in FIG. 1. The main targets are highlighted in FIG. 1B. The profiling” for “The profiling”

[7] = molecular target: TrkA (Homo sapiens, UniProt P04629); assay: Kinase profiling in vitro at 1 μM; format: biochemical; conditions: 1 microMolar in vitro, read-out: Percent of remaining activity
Experimental: as §3, with “The specificity of C14 was tested, in vitro, against 121 kinases representative of the kinome. Assays run in duplicate, at the concentration of 1 μM, were performed by MRC (Dundee, UK). Results are represented in FIG. 1. The main targets are highlighted in FIG. 1B. The profiling” for “The profiling”

[8] = molecular target: STK33 (Homo sapiens, UniProt Q9BYT3); assay: Kinase profiling in vitro at 1 μM; format: biochemical; conditions: 1 microMolar in vitro, read-out: Percent of remaining activity
Experimental: as §3, with “The specificity of C14 was tested, in vitro, against 121 kinases representative of the kinome. Assays run in duplicate, at the concentration of 1 μM, were performed by MRC (Dundee, UK). Results are represented in FIG. 1. The main targets are highlighted in FIG. 1B. The profiling” for “The profiling”

[9] = molecular target: MELK (Homo sapiens, UniProt Q14680); assay: Kinase profiling in vitro at 1 μM; format: biochemical; conditions: 1 microMolar in vitro, read-out: Percent of remaining activity
Experimental: as §3, with “The specificity of C14 was tested, in vitro, against 121 kinases representative of the kinome. Assays run in duplicate, at the concentration of 1 μM, were performed by MRC (Dundee, UK). Results are represented in FIG. 1. The main targets are highlighted in FIG. 1B. The profiling” for “The profiling”

[10] = molecular target: CAMKKb (Homo sapiens, UniProt Q96RR4); assay: Kinase profiling in vitro at 1 μM; format: biochemical; conditions: 1 microMolar in vitro, read-out: Percent of remaining activity
Experimental: as §3, with “The specificity of C14 was tested, in vitro, against 121 kinases representative of the kinome. Assays run in duplicate, at the concentration of 1 μM, were performed by MRC (Dundee, UK). Results are represented in FIG. 1. The main targets are highlighted in FIG. 1B. The profiling” for “The profiling”

[11] = molecular target: IR (Homo sapiens, UniProt P06213); assay: Kinase profiling in vitro at 1 μM; format: biochemical; conditions: 1 microMolar in vitro, read-out: Percent of remaining activity
Experimental: as §3, with “The specificity of C14 was tested, in vitro, against 121 kinases representative of the kinome. Assays run in duplicate, at the concentration of 1 μM, were performed by MRC (Dundee, UK). Results are represented in FIG. 1. The main targets are highlighted in FIG. 1B. The profiling” for “The profiling”

[12] = molecular target: Brsk1 (Homo sapiens, UniProt Q8TDC3); assay: Kinase profiling in vitro at 1 μM; format: biochemical; conditions: 1 microMolar in vitro, read-out: Percent of remaining activity
Experimental: as §3, with “The specificity of C14 was tested, in vitro, against 121 kinases representative of the kinome. Assays run in duplicate, at the concentration of 1 μM, were performed by MRC (Dundee, UK). Results are represented in FIG. 1. The main targets are highlighted in FIG. 1B. The profiling” for “The profiling”

[13] = molecular target: FGFR1 (Homo sapiens, UniProt P11362); assay: Kinase profiling in vitro at 1 μM; format: biochemical; conditions: 1 microMolar in vitro, read-out: Percent of remaining activity
Experimental: as §3, with “The specificity of C14 was tested, in vitro, against 121 kinases representative of the kinome. Assays run in duplicate, at the concentration of 1 μM, were performed by MRC (Dundee, UK). Results are represented in FIG. 1. The main targets are highlighted in FIG. 1B. The profiling” for “The profiling”

[14] = molecular target: IRAK4 (Homo sapiens, UniProt Q9NWZ3); assay: Kinase profiling in vitro at 1 μM; format: biochemical; conditions: 1 microMolar in vitro, read-out: Percent of remaining activity
Experimental: as §3, with “The specificity of C14 was tested, in vitro, against 121 kinases representative of the kinome. Assays run in duplicate, at the concentration of 1 μM, were performed by MRC (Dundee, UK). Results are represented in FIG. 1. The main targets are highlighted in FIG. 1B. The profiling” for “The profiling”

[15] = molecular target: Gck (Homo sapiens, UniProt Q12851); assay: Kinase profiling in vitro at 1 μM; format: biochemical; conditions: 1 microMolar in vitro, read-out: Percent of remaining activity
Experimental: as §3, with “The specificity of C14 was tested, in vitro, against 121 kinases representative of the kinome. Assays run in duplicate, at the concentration of 1 μM, were performed by MRC (Dundee, UK). Results are represented in FIG. 1. The main targets are highlighted in FIG. 1B. The profiling” for “The profiling”

[16] = tested on: Phk; assay: Kinase profiling in vitro at 1 μM; format: biochemical; conditions: 1 microMolar in vitro
Experimental: as §3, with “The specificity of C14 was tested, in vitro, against 121 kinases representative of the kinome. Assays run in duplicate, at the concentration of 1 μM, were performed by MRC (Dundee, UK). Results are represented in FIG. 1. The main targets are highlighted in FIG. 1B. The profiling” for “The profiling”

[17] = tested on: VEGFR; assay: Kinase profiling in vitro at 1 μM; format: biochemical; conditions: 1 microMolar in vitro
Experimental: as §3, with “The specificity of C14 was tested, in vitro, against 121 kinases representative of the kinome. Assays run in duplicate, at the concentration of 1 μM, were performed by MRC (Dundee, UK). Results are represented in FIG. 1. The main targets are highlighted in FIG. 1B. The profiling” for “The profiling”

[18] = compound at 1 μM, read-out: percentage of remaining activity of recombinant kinase
[19] = Chk1, compound at 1 μM, read-out: percentage of remaining activity of recombinant kinase
[20] = 1 microMolar in vitro, read-out: Percent of remaining activity

Chain of Chk2 (O96017 whole entry, species assumed): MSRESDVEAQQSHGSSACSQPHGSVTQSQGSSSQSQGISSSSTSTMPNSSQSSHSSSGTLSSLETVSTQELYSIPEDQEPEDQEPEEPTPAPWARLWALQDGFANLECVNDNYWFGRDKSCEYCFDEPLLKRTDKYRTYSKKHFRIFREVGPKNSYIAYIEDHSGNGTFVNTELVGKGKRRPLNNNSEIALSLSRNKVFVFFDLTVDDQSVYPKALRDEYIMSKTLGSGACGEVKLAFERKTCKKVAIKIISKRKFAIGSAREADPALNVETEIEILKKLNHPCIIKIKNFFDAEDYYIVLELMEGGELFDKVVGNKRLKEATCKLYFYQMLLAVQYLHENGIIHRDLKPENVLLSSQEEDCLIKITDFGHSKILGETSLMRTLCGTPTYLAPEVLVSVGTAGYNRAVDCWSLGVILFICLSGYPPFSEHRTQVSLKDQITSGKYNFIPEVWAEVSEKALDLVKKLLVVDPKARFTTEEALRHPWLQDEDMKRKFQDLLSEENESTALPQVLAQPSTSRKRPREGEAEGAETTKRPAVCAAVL
Chain of Aurora B (Q96GD4 whole entry): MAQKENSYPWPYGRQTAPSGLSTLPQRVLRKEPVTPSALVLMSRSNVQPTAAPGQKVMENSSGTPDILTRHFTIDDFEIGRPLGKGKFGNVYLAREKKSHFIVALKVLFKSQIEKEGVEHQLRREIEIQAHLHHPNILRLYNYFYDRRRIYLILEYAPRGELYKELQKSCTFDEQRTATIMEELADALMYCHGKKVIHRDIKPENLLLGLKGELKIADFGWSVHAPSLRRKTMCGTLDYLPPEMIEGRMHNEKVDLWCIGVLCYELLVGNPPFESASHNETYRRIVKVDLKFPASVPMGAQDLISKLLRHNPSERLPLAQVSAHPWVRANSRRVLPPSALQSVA
Chain of STK33 (Q9BYT3 whole entry, species assumed): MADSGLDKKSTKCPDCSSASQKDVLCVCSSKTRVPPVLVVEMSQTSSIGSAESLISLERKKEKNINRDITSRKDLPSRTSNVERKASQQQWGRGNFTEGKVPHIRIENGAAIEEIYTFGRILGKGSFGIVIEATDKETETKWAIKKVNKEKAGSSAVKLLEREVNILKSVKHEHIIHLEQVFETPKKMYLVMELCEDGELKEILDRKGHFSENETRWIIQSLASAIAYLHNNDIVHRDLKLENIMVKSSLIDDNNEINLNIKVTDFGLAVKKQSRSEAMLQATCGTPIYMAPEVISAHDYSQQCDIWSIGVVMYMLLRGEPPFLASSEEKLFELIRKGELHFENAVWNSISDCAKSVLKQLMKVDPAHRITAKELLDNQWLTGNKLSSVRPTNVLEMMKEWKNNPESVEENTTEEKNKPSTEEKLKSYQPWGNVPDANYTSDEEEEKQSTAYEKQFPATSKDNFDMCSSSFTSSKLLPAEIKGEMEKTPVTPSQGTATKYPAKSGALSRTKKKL
Chain of MLK1 (P80192 whole entry, species assumed): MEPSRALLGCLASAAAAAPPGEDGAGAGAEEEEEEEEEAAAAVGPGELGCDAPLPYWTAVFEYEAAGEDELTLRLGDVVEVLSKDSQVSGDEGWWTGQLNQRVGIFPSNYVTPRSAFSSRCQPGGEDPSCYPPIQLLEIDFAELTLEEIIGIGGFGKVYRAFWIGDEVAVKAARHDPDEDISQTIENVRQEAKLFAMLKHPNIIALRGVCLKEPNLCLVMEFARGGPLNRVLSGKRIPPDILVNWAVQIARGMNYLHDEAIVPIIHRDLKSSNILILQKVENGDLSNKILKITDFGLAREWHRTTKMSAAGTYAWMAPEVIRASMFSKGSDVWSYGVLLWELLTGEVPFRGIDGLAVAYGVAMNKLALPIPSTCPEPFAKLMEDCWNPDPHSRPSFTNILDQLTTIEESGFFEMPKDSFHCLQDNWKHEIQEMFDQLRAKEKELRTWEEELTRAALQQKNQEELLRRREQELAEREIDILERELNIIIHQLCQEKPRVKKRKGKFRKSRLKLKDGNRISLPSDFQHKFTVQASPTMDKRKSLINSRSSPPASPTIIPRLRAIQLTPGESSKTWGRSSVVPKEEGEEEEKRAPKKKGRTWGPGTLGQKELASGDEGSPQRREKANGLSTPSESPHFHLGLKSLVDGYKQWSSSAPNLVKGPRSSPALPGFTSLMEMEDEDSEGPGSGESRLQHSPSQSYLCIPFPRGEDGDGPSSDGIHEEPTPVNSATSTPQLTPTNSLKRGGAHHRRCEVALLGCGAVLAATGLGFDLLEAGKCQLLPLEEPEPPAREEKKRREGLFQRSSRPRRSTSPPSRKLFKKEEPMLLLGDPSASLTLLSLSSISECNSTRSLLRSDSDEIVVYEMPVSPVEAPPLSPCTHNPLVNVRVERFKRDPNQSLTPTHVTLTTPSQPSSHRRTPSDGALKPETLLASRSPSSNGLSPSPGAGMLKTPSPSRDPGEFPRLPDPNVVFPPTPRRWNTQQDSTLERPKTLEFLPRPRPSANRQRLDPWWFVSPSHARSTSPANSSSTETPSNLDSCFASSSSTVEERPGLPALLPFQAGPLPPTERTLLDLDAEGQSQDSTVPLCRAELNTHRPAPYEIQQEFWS
Chain of FGFR1 (P11362 22-822, species assumed): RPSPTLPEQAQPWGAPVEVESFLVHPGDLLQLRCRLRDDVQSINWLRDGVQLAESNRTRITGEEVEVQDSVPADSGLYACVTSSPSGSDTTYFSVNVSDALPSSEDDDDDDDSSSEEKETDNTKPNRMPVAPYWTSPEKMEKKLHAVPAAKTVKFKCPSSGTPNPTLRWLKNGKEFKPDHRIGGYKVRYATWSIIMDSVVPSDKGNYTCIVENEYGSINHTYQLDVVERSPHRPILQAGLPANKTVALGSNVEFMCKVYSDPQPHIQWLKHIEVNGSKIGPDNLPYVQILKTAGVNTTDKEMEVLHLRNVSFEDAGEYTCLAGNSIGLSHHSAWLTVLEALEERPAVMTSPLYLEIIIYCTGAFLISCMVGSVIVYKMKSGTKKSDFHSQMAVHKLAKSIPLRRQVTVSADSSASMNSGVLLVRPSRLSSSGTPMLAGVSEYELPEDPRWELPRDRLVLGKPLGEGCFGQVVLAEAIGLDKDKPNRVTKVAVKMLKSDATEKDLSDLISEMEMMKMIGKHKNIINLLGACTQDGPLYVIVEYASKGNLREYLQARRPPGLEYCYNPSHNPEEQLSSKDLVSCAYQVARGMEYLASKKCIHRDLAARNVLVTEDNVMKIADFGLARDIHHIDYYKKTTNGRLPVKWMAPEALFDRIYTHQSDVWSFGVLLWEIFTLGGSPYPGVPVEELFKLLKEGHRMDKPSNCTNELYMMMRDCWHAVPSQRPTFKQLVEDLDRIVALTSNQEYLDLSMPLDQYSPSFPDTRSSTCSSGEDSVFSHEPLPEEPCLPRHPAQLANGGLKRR
Chain of CAMKKb (Q96RR4 whole entry, species assumed): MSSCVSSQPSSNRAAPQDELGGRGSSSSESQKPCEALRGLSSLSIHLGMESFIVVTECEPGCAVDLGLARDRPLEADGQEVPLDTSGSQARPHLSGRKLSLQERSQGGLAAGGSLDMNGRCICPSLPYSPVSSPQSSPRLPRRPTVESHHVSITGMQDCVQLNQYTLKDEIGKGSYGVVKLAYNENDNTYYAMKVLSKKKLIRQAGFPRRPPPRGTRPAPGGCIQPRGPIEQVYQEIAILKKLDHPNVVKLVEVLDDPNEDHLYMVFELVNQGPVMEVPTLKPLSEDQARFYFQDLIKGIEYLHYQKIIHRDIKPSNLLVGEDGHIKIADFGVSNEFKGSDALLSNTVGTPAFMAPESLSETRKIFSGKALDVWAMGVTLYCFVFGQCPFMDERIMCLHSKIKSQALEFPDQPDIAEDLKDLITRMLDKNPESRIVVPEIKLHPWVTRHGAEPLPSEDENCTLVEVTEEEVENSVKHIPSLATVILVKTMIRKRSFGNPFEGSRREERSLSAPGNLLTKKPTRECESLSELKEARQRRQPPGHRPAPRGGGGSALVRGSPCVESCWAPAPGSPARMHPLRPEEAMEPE
Chain of TrkA (P04629 33-796, species assumed): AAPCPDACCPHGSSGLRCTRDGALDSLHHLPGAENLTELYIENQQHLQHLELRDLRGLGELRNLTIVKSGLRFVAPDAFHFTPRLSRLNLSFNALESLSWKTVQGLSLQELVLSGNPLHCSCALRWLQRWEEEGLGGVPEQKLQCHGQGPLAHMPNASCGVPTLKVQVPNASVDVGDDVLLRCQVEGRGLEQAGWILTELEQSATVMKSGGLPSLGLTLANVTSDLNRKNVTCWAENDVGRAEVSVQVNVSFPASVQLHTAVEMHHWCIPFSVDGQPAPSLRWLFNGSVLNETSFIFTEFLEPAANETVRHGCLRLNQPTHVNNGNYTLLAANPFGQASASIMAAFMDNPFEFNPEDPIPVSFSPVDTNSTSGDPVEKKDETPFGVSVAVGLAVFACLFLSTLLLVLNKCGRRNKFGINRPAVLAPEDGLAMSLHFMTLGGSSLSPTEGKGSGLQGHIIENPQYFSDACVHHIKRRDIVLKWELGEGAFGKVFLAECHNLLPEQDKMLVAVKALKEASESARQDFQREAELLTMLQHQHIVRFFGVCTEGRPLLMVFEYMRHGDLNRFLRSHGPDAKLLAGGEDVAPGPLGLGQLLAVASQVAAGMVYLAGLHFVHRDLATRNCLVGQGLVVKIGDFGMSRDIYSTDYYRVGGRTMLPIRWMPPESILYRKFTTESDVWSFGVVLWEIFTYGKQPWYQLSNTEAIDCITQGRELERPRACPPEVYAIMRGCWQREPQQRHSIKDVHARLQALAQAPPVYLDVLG

## CCc1c[nH]c(=O)c2c1[nH]c1ccc3cc(OC)ccc3c12 [Compound C1, reference compound]
[1]; [18]
  remaining activity at 1 µM: 6%
[2]; [19]
  remaining activity at 1 µM: 23%
[3]; [18]
  remaining activity at 1 µM: 19%
[4]
  impairment of mitosis (in words): prevented anaphase ongoing

## Cc1c[nH]c(=O)c2c1[nH]c1ccc3cc(OCCN(C)C)ccc3c12 [Compound C14, 3-(2-N,N-Dimethylaminoethoxy)-8-methyl-7H,10H-benzo[e]pyrido(4,3-b)indol-11-one]
[1]; [20]
  remaining activity at 1 µM: 9%
[1]; [18]
  remaining activity at 1 µM: 9%
[2]; CHK1, 1 microMolar in vitro, read-out: Percent of remaining activity
  remaining activity at 1 µM: 31%
[2]; [19]
  remaining activity at 1 µM: 31%
[3]; [20]
  remaining activity at 1 µM: 24%
[3]; [18]
  remaining activity at 1 µM: 24%
[5]
  remaining activity at 1 µM: 27%
[6]
  remaining activity at 1 µM: 6%
[7]
  remaining activity at 1 µM: 5%
[8]
  remaining activity at 1 µM: 31%
[9]
  remaining activity at 1 µM: 31%
[10]
  remaining activity at 1 µM: 22%
[11]
  remaining activity at 1 µM: 15%
[12]
  remaining activity at 1 µM: 22%
[13]
  remaining activity at 1 µM: 24%
[14]
  remaining activity at 1 µM: 25%
[15]
  remaining activity at 1 µM: 11%
[16]
  Percent of remaining activity: 10%
[17]
  Percent of remaining activity: 16%
[4]
  impairment of mitosis (in words): affected cytokinesis
